Measurements from patent US12617831B2 (UNIVERSITE D'ANGERS, priority 2019, dated 2026).

Assays:
Murine Raw 264.7 cells = assay: Raw264.7 cell-mediated osteoclast formation in vitro (Example 2); type: cell-based; conditions: 10 ng/ml soluble murine RANKL, 110 h, TRAcP staining
Excerpt: TRAcP positive cells, with more than three nuclei, were identified as osteoclasts.

MC3T3-E1 cells = type: cell-based, murine
Experimental: Increased plasma membrane permeability that occurs during cell death can be visualised using trypan blue, a dye that is excluded from living cells and is incorporated into the cells when they are undergoing death (Bellido and Plotkin (2008) Methods Mol. Biol. 455:51-75).
After 24 h, the cell culture supernatant containing the floating cells was collected and put in previously labelled eppendorf tubes. Each well was washed in PBS before trypsin was added to detach adherent cells. The mixture containing detached adherent cells was collected and pooled in the eppendorf containing the cell culture supernatant. Cells were spun at 1,500 rotation per minute (rpm) for 10 minutes, the supernatant was removed carefully and cells were incubated with trypan blue 0.04% and transferred into a haemocytometer. Living (clear) and dead (blue) cells were counted under light microscope examination and the percentage of dead cells was determined for each condition as follow: % of dead cells=100×(Number of dead cells)/(Number of dead cells+Number of living cells)

human GLP-2r = target: T1, human GLP-2r (Homo sapiens, UniProt O95838); assay: Cyclic AMP assay (FRET, H74 probe), HEK-293 transfected with human GLP-2r; type: cell-based; conditions: HEK 293 transfected only with human GLP-2r, 10^-9 M, 30 min (FIG. 17)
T1 construct: host or cells: HEK-293
T1 sequence (O95838 1-553): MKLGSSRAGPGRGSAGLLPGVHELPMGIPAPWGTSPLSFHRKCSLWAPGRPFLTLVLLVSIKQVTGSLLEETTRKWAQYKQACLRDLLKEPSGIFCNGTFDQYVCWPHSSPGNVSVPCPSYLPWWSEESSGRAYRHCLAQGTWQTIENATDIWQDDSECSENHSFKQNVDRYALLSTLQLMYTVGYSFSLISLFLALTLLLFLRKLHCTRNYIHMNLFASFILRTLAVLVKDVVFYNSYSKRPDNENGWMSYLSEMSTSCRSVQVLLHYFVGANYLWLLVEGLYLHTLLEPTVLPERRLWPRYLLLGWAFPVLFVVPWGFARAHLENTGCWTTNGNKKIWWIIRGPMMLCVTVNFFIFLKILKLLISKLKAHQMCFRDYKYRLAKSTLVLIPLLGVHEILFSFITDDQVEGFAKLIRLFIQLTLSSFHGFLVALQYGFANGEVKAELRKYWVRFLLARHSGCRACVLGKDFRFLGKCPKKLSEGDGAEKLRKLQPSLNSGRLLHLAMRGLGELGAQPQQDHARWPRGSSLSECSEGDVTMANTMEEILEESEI
Experimental: Human HEK-293 cells were plated at a density of 2×10^5 cells/cm^2 in 4 well microslides (ibidi GmbH, Martinsried, Germany). […] Jalink (Netherland Cancer Institute, Amsterdam, Netherland). […] The image acquisition was performed with a 63 X, 1.4 N.A. oil immersion objective and a Hybrid® detector (Leica) and images were collected after 30 minutes. Donor excitation was made with a 458 nm Ar laser, donor emission was collected between 460-505 nm and acceptor emission between 520-600 nm by setting the SP8 spectrometer accordingly. FRET was expressed as the ratio between donor and acceptor signals.

CC[C@H](C)[C@H](NC(=O)[C@H](CO)NC(=O)[C@H](CCSC)NC(=O)[C@H](CC(=O)O)NC(=O)[C@H](CO)NC(=O)CNC(=O)[C@H](Cc1ccccc1)NC(=O)[C@H](CO)NC(=O)CNC(=O)[C@H](CCC(=O)O)NC(=O)CNC(=O)[C@@H](N)Cc1c[nH]cn1)C(=O)N[C@@H](C)C(=O)N[C@@H](CC(C)C)C(=O)N[C@@H](CC(=O)O)C(=O)N[C@@H](CCCCN)C(=O)N[C@@H](CC(C)C)C(=O)N[C@@H](C)C(=O)N[C@@H](C)C(=O)N[C@@H](CCCNC(=N)N)C(=O)N[C@@H](CC(=O)O)C(=O)N[C@@H](Cc1ccccc1)C(=O)N[C@H](C(=O)N[C@@H](CC(N)=O)C(=O)N[C@@H](Cc1c[nH]c2ccccc12)C(=O)N[C@@H](CC(C)C)C(=O)N[C@@H](CC(C)C)C(=O)N[C@@H](CCC(N)=O)C(=O)N[C@H](C(=O)N[C@@H](CCCCN)C(=O)N[C@H](C(=O)N[C@H](C(=O)N[C@@H](CC(=O)O)C(=O)O)[C@@H](C)O)[C@@H](C)CC)[C@@H](C)O)C(C)C [GL-0001]
IC50 (Murine Raw 264.7 cells): 18.2 ± 5.6 pM | osteoblast cell death (MC3T3-E1 cells): does not induce cell death | intracellular levels of cAMP (human GLP-2r): increased intracellular levels of cAMP
